From publication PMC8129133, “Polymer-free corticosteroid dimer implants for controlled and sustained drug delivery” (Nature Communications, 2021)
Values joined by “and” are separate entries in the source; they are usually repeats but may differ in a detail not shown here. Equal values may be shown once. One block for each compound: values may come before it.

Assay: In vitro release
Assay type: physicochemical
Details: for Cumulative Pred Release: Fig 5a pellet 1x1 mm; for Cumulative Pred Release (%): Fig 5a pellet
Method: Pellets for release studies. Crystalline drug dimers were weighed on a stainless steel coupon. In the case of blends with a second drug, the dimer and drug were mixed at the desired mass ratio with mortar and pestle prior to weighing. Samples were transferred to a heat press (Carver Laboratory Press). A PTFE mold containing an array of 1 mm diameter holes of 1 mm depth was placed on top of the melt, and pressure was applied for 2 min. Molded pellets were cooled to room temperature and punched out of the mold, yielding a pellet of 1 mm height × 1 mm diameter.
Release studies were carried out using different media, including PBS (pH 7.4, Gibco), 100% FBS (Sigma, F1051), 1% FBS in PBS pH 7.4, and 3.6% BSA (Sigma, A7906) in PBS (pH 7.4, Gibco). […] Samples were incubated in release medium at 37 °C under constant agitation on an orbital shaker at 115 rpm (VWR). At designated timepoints, sampling was performed by complete removal of medium and replenishment with fresh buffer. Sampling timepoints included 24 h and then every 3–4 days thereafter. For PBS release conditions, samples were analyzed directly. For samples with protein (100% FBS, 1% FBS, 3.6% BSA), protein was precipitated by addition of acetonitrile. Samples were vortexed and centrifuged to separate extracted drug from precipitated protein. The supernatant was then analyzed for drug concentration by HPLC.

[1] = Fig 6a heterodimer pellet, 4 ml PBS, Day 1, samples and avg
[2] = Fig 6a heterodimer pellet, 4 ml PBS, Day 1, samples and avg, mean
[3] = Fig 6a heterodimer pellet, 4 ml PBS, Day 5, samples and avg
[4] = Fig 6a heterodimer pellet, 4 ml PBS, Day 5, samples and avg, mean
[5] = Fig 6a heterodimer pellet, 4 ml PBS, Day 7, samples and avg
[6] = Fig 6a heterodimer pellet, 4 ml PBS, Day 7, samples and avg, mean
[7] = Fig 6a heterodimer pellet, 4 ml PBS, Day 11, samples and avg
[8] = Fig 6a heterodimer pellet, 4 ml PBS, Day 11, samples and avg, mean
[9] = Fig 6a heterodimer pellet, 4 ml PBS, Day 14, samples and avg
[10] = Fig 6a heterodimer pellet, 4 ml PBS, Day 14, samples and avg, mean
[11] = Fig 6a heterodimer pellet, PBS, Day 1, avg
[12] = Fig 6a heterodimer pellet, PBS, Day 5, avg
[13] = Fig 6a heterodimer pellet, PBS, Day 7, avg
[14] = Fig 6a heterodimer pellet, PBS, Day 11, avg
[15] = Fig 6a heterodimer pellet, PBS, Day 14, avg

Cumulative Dex Release (Fig 5g pellet 1x1 mm, 2 ml FBS, Day 3, samples and avg): 5606.66 ng and 6179.38 ng and 5887.12 ng
Cumulative Dex Release (Fig 5g pellet 1x1 mm, 2 ml FBS, Day 3, samples and avg, mean): 5891.06 ng
Cumulative Dex Release (Fig 5g pellet 1x1 mm, 2 ml FBS, Day 7, samples and avg (Dex-Hex-Dex), mean): 15650.99 ng
Cumulative Dex Release (Fig 5g pellet 1x1 mm, 2 ml FBS, Day 10, samples and avg, mean): 22053.69 ng
Cumulative Dex Release (Fig 5g pellet 1x1 mm, 2 ml FBS, Day 14, samples and avg (Dex-Hex-Dex), mean): 34050.91 ng
Cumulative Dex Release (%) (Fig 5g pellet, FBS, Day 3, avg): 0.42%
Cumulative Dex Release (%) (Fig 5g pellet, FBS, Day 7, avg (Dex-Hex-Dex)): 1.13%
Cumulative Dex Release (%) (Fig 5g pellet, FBS, Day 10, avg): 1.59%
Cumulative Dex Release (%) (Fig 5g pellet, FBS, Day 14, avg (Dex-Hex-Dex)): 2.45%
Structure (SMILES): CC1CC2C3CCC4=CC(=O)C=CC4(C)C3(F)C(O)CC2(C)C1(O)C(=O)COC(=O)OCCCCCCOC(=O)OCC(=O)C1(O)C(C)CC2C3CCC4=CC(=O)C=CC4(C)C3(F)C(O)CC21C (stereo not drawn) [Dex-Hex-Dex]
Cumulative Dex Release (Fig 5g pellet 1x1 mm, 2 ml FBS, Day 7, samples and avg (Dex-Hex-Dex)): 14987.41 ng and 15994.59 ng and 15970.98 ng
Cumulative Dex Release (Fig 5g pellet 1x1 mm, 2 ml FBS, Day 10, samples and avg): 21287.07 ng and 22357.19 ng and 22516.81 ng
Cumulative Dex Release (Fig 5g pellet 1x1 mm, 2 ml FBS, Day 14, samples and avg (Dex-Hex-Dex)): 32738.37 ng and 34997.20 ng and 34417.18 ng

Cumulative Dex Release [1]: 81.55 ng and 74.59 ng and 99.31 ng
Cumulative HC Release [1]: 224.52 ng and 206.99 ng and 167.90 ng
Cumulative Dex Release [2]: 85.15 ng
Cumulative HC Release [2]: 199.80 ng
Cumulative Dex Release [3]: 2326.27 ng and 2325.49 ng and 1831.14 ng
Cumulative HC Release [3]: 2952.91 ng and 3019.31 ng and 2390.05 ng
Cumulative Dex Release [4]: 2160.97 ng
Cumulative HC Release [4]: 2787.43 ng
Cumulative Dex Release [5]: 3098.36 ng and 2980.56 ng and 2543.37 ng
Cumulative HC Release [5]: 4047.00 ng and 4113.39 ng and 3426.84 ng
Cumulative Dex Release [6]: 2874.10 ng
Cumulative HC Release [6]: 3862.41 ng
Cumulative Dex Release [7]: 4911.68 ng and 4696.17 ng and 4037.68 ng
Cumulative HC Release [7]: 6283.65 ng and 6328.14 ng and 5362.18 ng
Cumulative Dex Release [8]: 4548.51 ng
Cumulative HC Release [8]: 5991.32 ng
Cumulative Dex Release [9]: 6135.25 ng and 5788.05 ng and 5026.44 ng
Cumulative HC Release [9]: 7866.10 ng and 7754.88 ng and 6681.74 ng
Cumulative Dex Release [10]: 5649.91 ng
Cumulative HC Release [10]: 7434.24 ng
Cumulative Dex Release (%) [11]: 0.0441%
Cumulative HC Release (%) [11]: 0.11%
Cumulative Dex Release (%) [12]: 1.12%
Cumulative HC Release (%) [12]: 1.51%
Cumulative Dex Release (%) [13]: 1.49%
Cumulative HC Release (%) [13]: 2.09%
Cumulative Dex Release (%) [14]: 2.35%
Cumulative HC Release (%) [14]: 3.25%
Cumulative Dex Release (%) [15]: 2.92%
Cumulative HC Release (%) [15]: 4.03%
Structure (SMILES): CC1CC2C3CCC4=CC(=O)C=CC4(C)C3(F)C(O)CC2(C)C1(O)C(=O)COC(=O)OCCOCCOCCOC(=O)OCC(=O)C1(O)CCC2C3CCC4=CC(=O)CCC4(C)C3C(O)CC21C (stereo not drawn) [Dex-TEG-HC]

Cumulative Pred Release (4 ml PBS, Day 1, samples and avg): 4849.98 ng and 3117.45 ng and 2848.01 ng
Cumulative Pred Release (4 ml PBS, Day 1, samples and avg, mean): 3605.15 ng
Cumulative Pred Release (4 ml PBS, Day 3, samples and avg): 9969.33 ng and 8304.40 ng and 8589.91 ng
Cumulative Pred Release (4 ml PBS, Day 3, samples and avg, mean): 8954.55 ng
Cumulative Pred Release (4 ml PBS, Day 7, samples and avg, mean): 26001.30 ng
Cumulative Pred Release (4 ml PBS, Day 14, samples and avg, mean): 52216.70 ng
Cumulative Pred Release (%) (PBS, Day 1, avg): 0.38%
Cumulative Pred Release (%) (PBS, Day 3, avg): 0.94%
Cumulative Pred Release (%) (PBS, Day 7, avg): 2.72%
Cumulative Pred Release (%) (PBS, Day 14, avg): 5.45%
Structure (SMILES): CC12C=CC(=O)C=C1CCC1C2C(O)CC2(C)C1CCC2(O)C(=O)COC(=O)OCCOCCOCCOC(=O)OCC(=O)C1(O)CCC2C3CCC4=CC(=O)C=CC4(C)C3C(O)CC21C (stereo not drawn) [Pred-TEG-Pred]
Cumulative Pred Release (4 ml PBS, Day 7, samples and avg): 27879.94 ng and 24662.51 ng and 25461.45 ng
Cumulative Pred Release (4 ml PBS, Day 14, samples and avg): 55975.76 ng and 47712.14 ng and 52962.20 ng

Cumulative HC Release (Fig 5c pellet 1x1 mm, 4 ml PBS, Day 1, samples and avg): 3582.46 ng and 3140.26 ng and 2450.67 ng
Cumulative HC Release (Fig 5c pellet 1x1 mm, 4 ml PBS, Day 1, samples and avg, mean): 3057.80 ng
Cumulative HC Release (Fig 5c pellet 1x1 mm, 4 ml PBS, Day 3, samples and avg): 8019.98 ng and 7816.75 ng and 5925.61 ng
Cumulative HC Release (Fig 5c pellet 1x1 mm, 4 ml PBS, Day 3, samples and avg, mean): 7254.11 ng
Cumulative HC Release (Fig 5c pellet 1x1 mm, 4 ml PBS, Day 7, samples and avg, mean): 19166.65 ng
Cumulative HC Release (Fig 5c pellet 1x1 mm, 4 ml PBS, Day 11, samples and avg, mean): 31062.21 ng
Cumulative HC Release (Fig 5c pellet 1x1 mm, 4 ml PBS, Day 14, samples and avg, mean): 38643.77 ng
Cumulative HC Release (%) (Fig 5c pellet, PBS, Day 1, avg): 0.51%
Cumulative HC Release (%) (Fig 5c pellet, PBS, Day 3, avg): 1.20%
Cumulative HC Release (%) (Fig 5c pellet, PBS, Day 7, avg): 3.17%
Cumulative HC Release (%) (Fig 5c pellet, PBS, Day 11, avg): 5.15%
Cumulative HC Release (%) (Fig 5c pellet, PBS, Day 14, avg): 6.40%
Structure (SMILES): CC12CCC(=O)C=C1CCC1C2C(O)CC2(C)C1CCC2(O)C(=O)COC(=O)OCCOCCOCCOC(=O)OCC(=O)C1(O)CCC2C3CCC4=CC(=O)CCC4(C)C3C(O)CC21C (stereo not drawn) [HC-TEG-HC]
Cumulative HC Release (Fig 5c pellet 1x1 mm, 4 ml PBS, Day 7, samples and avg): 21489.19 ng and 20555.93 ng and 15454.82 ng
Cumulative HC Release (Fig 5c pellet 1x1 mm, 4 ml PBS, Day 11, samples and avg): 36020.08 ng and 33028.17 ng and 24138.38 ng
Cumulative HC Release (Fig 5c pellet 1x1 mm, 4 ml PBS, Day 14, samples and avg): 45741.74 ng and 40347.40 ng and 29842.17 ng
